Biological target: T1, human cannabinoid CB2 receptor (Homo sapiens, UniProt P34972)
T1 construct: expressed in transfected cells; host or cells: Saccharomyces cerevisiae strain MMY23
Experiment: Cannabinoid CB2 receptor agonist activity, yeast reporter assay (FDGlu fluorescence);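 for Emax: 100% equals maximal response of reference agonist HU210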
Assay type: cell-based
Settings: for Emax: read-out: efficacy value (Emax) at the cloned human cannabinoid CB2 receptor

T1 sequence (P34972 whole entry): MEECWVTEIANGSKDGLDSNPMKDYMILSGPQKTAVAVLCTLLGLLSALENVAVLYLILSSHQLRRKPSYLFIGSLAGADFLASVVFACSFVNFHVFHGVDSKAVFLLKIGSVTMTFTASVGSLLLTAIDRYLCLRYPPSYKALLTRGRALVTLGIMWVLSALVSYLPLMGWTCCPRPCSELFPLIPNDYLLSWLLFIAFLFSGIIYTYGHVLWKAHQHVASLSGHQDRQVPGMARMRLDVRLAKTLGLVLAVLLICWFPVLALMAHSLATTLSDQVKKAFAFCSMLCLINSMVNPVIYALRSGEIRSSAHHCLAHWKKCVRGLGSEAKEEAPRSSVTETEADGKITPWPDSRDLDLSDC

| SMILES | EC50 | Emax |
| --- | --- | --- |
| CC(C)c1cc(Nc2ccc(F)cc2F)ncc1C(=O)NCC1CCC1 [Example 249, N-Cyclobutylmethyl-6-(2,4-difluoro-phenylamino)-4-isopropyl-nicotinamide] | < 300 nM | > 50% |
| CC(C)c1cc(Nc2ccc(Cl)cc2Cl)ncc1C(=O)NCC1CCOCC1 [Example 17, 6-(2,4-Dichloro-phenylamino)-4-isopropyl-N-(tetrahydro-pyran-4-ylmethyl)-nicotinamide] | – | > 50% |
| CC(C)c1cc(Nc2cccc(C(F)(F)F)c2)ncc1C(=O)NCC1CCC1 [Example 35, N-Cyclobutylmethyl-6-(3-trifluoromethyl-phenylamino)-4-] | < 300 nM | > 50% |
| CC(C)c1cc(Nc2ccc(Cl)cc2Br)ncc1C(=O)NCC1CCCC1 [Example 89, 6-(2-Bromo-4-chloro-phenylamino)-N-cyclopentylmethyl-4-isopropyl-nicotinamide] | < 300 nM | > 50% |
| O=C(NCC1CC1)c1cnc(Nc2ccc(Cl)cc2Cl)cc1C(F)(F)F [Example 144, N-Cyclopropylmethyl-6-(2,4-dichloro-phenylamino)-4-tri-fluoromethyl-nicotinamide] | < 300 nM | > 50% |
| CC(C)c1cc(Nc2cccc(C#N)c2)ncc1C(=O)NCC1CCCC1 [Example 28, 6-(3-Cyano-phenylamino)-N-cyclopentylmethyl-4-isopropyl-nicotinamide] | < 300 nM | > 50% |
| CC(C)c1cc(Nc2ccc(Cl)c(Cl)c2)ncc1C(=O)NCC1CCOCC1 [Example 18, 6-(3,4-Dichloro-phenylamino)-4-isopropyl-N-(tetrahydro-pyran-4-ylmethyl)-nicotinamide] | < 300 nM | > 50% |
| CC(C)c1nc(Nc2cccc(F)c2)ccc1C(=O)NCC1CCCC1 [Example 217, 6-(3-Fluoro-phenylamino)-N-cyclopentylmethyl-2-isopropyl-nicotinamide] | < 300 nM | > 50% |
| CC(C)c1cc(Nc2cccc(Br)c2)ncc1C(=O)NCC1CCOCC1 [Example 8, 6-(3-Bromo-phenyl-amino)-4-isopropyl-N-(tetrahydro-pyran-4-ylmethyl)-nicotinamide] | – | > 50% |
| CC(C)c1nc(Nc2cccc(Cl)c2)ccc1C(=O)NCC1CCCC1 [Example 210, 6-(3-Chloro-phenylamino)-N-cyclopentylmethyl-2-isopropyl-nicotinamide] | < 300 nM | > 50% |
| CC(C)CNC(=O)c1cnc(Nc2cccc(C(F)(F)F)c2F)cc1C(C)C [Example 271, 6-(2-Fluoro-3-trifluoromethyl-phenylamino)-N-isobutyl-4-isopropyl-nicotinamide] | < 300 nM | > 50% |
| O=C(NCC1CCOCC1)c1cnc(Nc2cccc(Br)c2)cc1C(F)(F)F [Example 118, N-(Tetrahydropyran-4-yl-methyl)-6-(3-bromophenyl-amino)-4-trifluoromethyl-nicotinamide] | < 300 nM | > 50% |
| CC(C)CNC(=O)c1cnc(Nc2cccc(Br)c2)cc1C(C)C [Example 277, 6-(3-Bromo-phenylamino)-N-isobutyl-4-isopropyl-nicotinamide] | < 300 nM | > 50% |
| CC(C)c1cc(Nc2cc(C(F)(F)F)ccc2Cl)ncc1C(=O)NCC1CCOCC1 [Example 237, 6-(2-Chloro-5-trifluoromethyl-phenylamino)-4-isopropyl-N-(tetrahydro-pyran-4-ylmethyl)-nicotinamide] | < 300 nM | > 50% |
| CC(C)c1cc(Nc2ccc(C(F)(F)F)c(F)c2)ncc1C(=O)NCC1CCCC1 [Example 92, N-Cyclopentylmethyl-6-(3-fluoro-4-trifluoromethyl-phenylamino)-4-isopropyl-nicotinamide] | < 300 nM | > 50% |
| Cc1cccc(Nc2cc(C(C)C)c(C(=O)NCC3CCC3)cn2)c1 [Example 37, N-Cyclobutylmethyl-4-isopropyl-6-m-tolylamino-nicotinamide] | – | > 50% |
| O=C(NCC1CCC1)c1cnc(Nc2cccc(Cl)c2)cc1C(F)(F)F [Example 112, N-Cyclobutylmethyl-6-(3-chlorophenylamino)-4-tri-fluoromethyl-nicotinamide] | < 300 nM | > 50% |
| CC(C)c1cc(Nc2ccc(Br)c(Br)c2)ncc1C(=O)NCC1CCOCC1 [Example 296, 6-(3,4-Dibromo-phenylamino)-4-isopropyl-N-(tetrahydropyran-4-ylmethyl)-nicotinamide] | < 300 nM | > 50% |
| O=C(NC1CCC1)c1cnc(Nc2ccc(Cl)cc2Cl)cc1C(F)(F)F [Example 140, N-Cyclobutyl-6-(2,4-dichloro-phenylamino)-4-trifluoro-methyl-nicotinamide] | < 300 nM | > 50% |
| COc1cccc(Nc2cc(C(C)C)c(C(=O)NCC3CCOCC3)cn2)c1 [Example 41, 4-Isopropyl-6-(3-methoxy-phenylamino)-N-(tetrahydro-pyran-4-ylmethyl)-nicotinamide] | – | > 50% |

| SMILES | EC50 | Emax |
| --- | --- | --- |
| COc1cccc(Nc2cc(C(C)C)c(C(=O)NCC3CCC3)cn2)c1 [Example 38, N-Cyclobutylmethyl-4-isopropyl-6-(3-methoxy-phenylamino)-nicotinamide] | < 300 nM | > 50% |
| CC(C)c1cc(Nc2cc(C(F)(F)F)ccc2F)ncc1C(=O)NCC1CCOCC1 [Example 236, 6-(2-Fluoro-5-trifluoromethyl-phenylamino)-4-isopropyl-N-(tetrahydro-pyran-4-ylmethyl)-nicotinamide] | < 300 nM | > 50% |
| CC(C)(C)c1cc(Nc2cccc(F)c2)ncc1C(=O)NCC1CCOCC1 [Example 72, 4-tert-Butyl-6-(3-fluoro-phenylamino)-N-(tetrahydro-pyran-4-ylmethyl)-nicotinamide] | < 300 nM | > 50% |
| CC(C)c1cc(Nc2ccc(C(F)(F)F)cc2Cl)ncc1C(=O)NCC1CCC1 [Example 262, 6-(2-Chloro-4-trifluoromethyl-phenylamino)-N-cyclobutylmethyl-4-isopropyl-nicotinamide] | < 300 nM | > 50% |
| O=C(NCC1CC1)c1cnc(Nc2ccc(Cl)c(Cl)c2)cc1C(F)(F)F [Example 158, N-Cyclopropylmethyl-6-(3,4-dichloro-phenylamino)-4-tri-fluoromethyl-nicotinamide] | < 300 nM | > 50% |
| CC(C)c1cc(Nc2ccc(F)c(C(F)(F)F)c2)ncc1C(=O)NCC1CCOCC1 [Example 295, 6-(4-Fluoro-3-trifluoromethyl-phenylamino)-4-isopropyl-N-(tetrahydropyran-4-ylmethyl)-nicotinamide] | < 300 nM | > 50% |
| CC(C)c1cc(Nc2cccc(Cl)c2)ncc1C(=O)NCC1CCCC1 [Example 21, 6-[(3-Chloro-phenyl)amino]-N-(cyclopentylmethyl)-4-isopropyl-nicotinamide] | – | > 50% |
| CC(C)c1nc(Nc2cccc(Cl)c2)ccc1C(=O)NCC1CCCCC1 [Example 211, 6-(3-Chloro-phenylamino)-N-cyclohexylmethyl-2-isopropyl-nicotinamide] | < 300 nM | > 50% |
| CC(C)c1cc(Nc2ccc(Cl)cc2Br)ncc1C(=O)NCC1CCC1 [Example 256, 6-(2-Bromo-4-chloro-phenylamino)-N-cyclobutylmethyl-4-isopropyl-nicotinamide] | < 300 nM | > 50% |
| CC(C)c1cc(Nc2cccc(F)c2)ncc1C(=O)NCC1CCCC1 [Example 22, N-Cyclopentylmethyl-6-(3-fluorophenylamino)-4-isopropyl-nicotinamide] | < 300 nM | > 50% |
| CC(C)c1cc(Nc2cc(F)ccc2Cl)ncc1C(=O)NCC1CCC1 [Example 267, 6-(2-Chloro-5-fluoro-phenylamino)-N-cyclobutytmethyl-4-isopropyl-nicotinamide] | < 300 nM | > 50% |
| Cc1cccc(Nc2cc(C(C)C)c(C(=O)NCC3CCOCC3)cn2)c1C#N [Example 303, 6-(2-Cyano-3-methyl-phenylamino)-4-isopropyl-N-(tetrahydropyran-4-ylmethyl)-nicotinamide] | – | > 50% |
| O=C(NCC1CCC1)c1cnc(Nc2ccc(F)cc2Cl)cc1C(F)(F)F [Example 163, N-Cyclobutylmethyl-6-(2-Chloro-4-fluoro-phenyl-amino)-4-trifluoromethyl-nicotinamide] | < 300 nM | > 50% |
| Cc1ccc(Br)cc1Nc1cc(C(C)C)c(C(=O)NCC2CCOCC2)cn1 [Example 234, 6-(5-Bromo-2-methyl-phenylamino)-4-isopropyl-N-(tetrahydro-pyran-4-ylmethyl)-nicotinamide] | < 300 nM | > 50% |
| CC(C)c1cc(Nc2ccc(F)cc2Cl)ncc1C(=O)NCC1CCCC1 [Example 29, 6-(2-Chloro-4-fluoro-phenylamino)-N-cyclopentylmethyl-4-isopropyl-nicotinamide] | < 300 nM | > 50% |
| CC(C)c1cc(Nc2cccc(C(F)(F)F)c2)ncc1C(=O)NCC1CCCCC1 [Example 14, N-Cyclohexylmethyl-4-isopropyl-6-(3-trifluoromethyl-phenylamino)-nicotinamide] | < 300 nM | > 50% |
| CC(C)c1cc(Nc2ccc(C#N)c(Cl)c2)ncc1C(=O)NCC1CCCC1 [Example 247, 6-(3-Chloro-4-cyano-phenytamino)-N-cyclopentylmethyl-4-isopropyl-nicotinamide] | < 300 nM | > 50% |
| CC(C)c1cc(Nc2ccc(Cl)cc2Cl)ncc1C(=O)NCC1CCS(=O)(=O)C1 (stereo not drawn) [Example 278, 6-(2,4-Dichloro-phenylamino)-N-(1,1-dioxo-tetrahydro-1/^6-thiophen-3-ylmethyl)-4-isopropyl-nicotinamide] | < 300 nM | > 50% |
| Cc1ccc(C(F)(F)F)cc1Nc1cc(C(C)C)c(C(=O)NCC2CCOCC2)cn1 [Example 88, 4-lsopropyl-6-(2-methyl-5-trifluoromethyl-phenylamino)-N-(tetrahydro-pyran-4-ylmethyl)-nicotinamide] | < 300 nM | > 50% |
